Laboratory results from ChEMBL document CHEMBL1201862, “PubChem BioAssay data set” (2004).
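Assay format: 96-well plates, 48-hour exposure. GI50 is the concentration that inhibits growth by half.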 Calls of active or inactive are those of the source. Cut-off read from the data, not from the text of the source: active = GI50 up to about 1.1 µM and inactive = higher.

Columns and labels:
Experiment in all cases: NCI tumour cell line growth inhibition, 48 h
MDA-MB-435 = tested on: MDA-MB-435
SR = tested on: SR
SF-268 = tested on: SF-268
NCI-H23 = tested on: NCI-H23
SF-539 = tested on: SF-539
MDA-MB-231 = tested on: MDA-MB-231
SNB-19 = tested on: SNB-19
CAKI-1 = tested on: CAKI-1
UO-31 = tested on: UO-31
HCC 2998 = tested on: HCC 2998
UACC-257 = tested on: UACC-257
OVCAR-5 = tested on: OVCAR-5
K562 = tested on: K562
MDA-N = tested on: MDA-N
NCI/ADR-RES = tested on: NCI/ADR-RES
NCI-H226 = tested on: NCI-H226
OVCAR-4 = tested on: OVCAR-4
LOX IMVI = tested on: LOX IMVI
SNB-75 = tested on: SNB-75
HL-60 = tested on: HL-60

Measured: GI50

CN1CCc2[nH]nc(-c3n[nH]c4c3CN(C)CC4)c2C1
inactive: MDA-MB-435 > 100 µM | SR > 100 µM | SF-268 > 100 µM | NCI-H23 > 100 µM | SF-539 > 100 µM | MDA-MB-231 > 100 µM | SNB-19 > 100 µM | CAKI-1 > 100 µM | UO-31 > 100 µM | HCC 2998 > 100 µM | UACC-257 > 100 µM | OVCAR-5 > 100 µM | K562 > 100 µM | MDA-N > 100 µM | NCI/ADR-RES > 100 µM | NCI-H226 > 100 µM | OVCAR-4 > 100 µM | LOX IMVI > 100 µM

COC(C/C(=C/CO[Si](C(C)C)(C(C)C)C(C)C)C(=O)Nc1ccccc1I)OC
inactive: SNB-75 88.1 µM | MDA-MB-435 26.7 µM | SR 7.5 µM | SF-268 46.9 µM | NCI-H23 32.9 µM | SF-539 19.8 µM | MDA-MB-231 12.5 µM | SNB-19 18.4 µM | CAKI-1 22.2 µM | UO-31 36.6 µM | HCC 2998 16.4 µM | UACC-257 32.6 µM | OVCAR-5 24 µM | K562 14.9 µM | MDA-N 23.2 µM | NCI/ADR-RES 22.9 µM | NCI-H226 28.5 µM | OVCAR-4 63.8 µM | LOX IMVI 16 µM

CC(=O)OC1CCC2(C)C(=CCC3C2CCC2(C)C(C(C)C(=O)O)CCC32)C1 (stereo not given)
inactive: SNB-75 > 100 µM | MDA-MB-435 > 100 µM | SR > 100 µM | SF-268 > 100 µM | NCI-H23 > 100 µM | SF-539 > 100 µM | MDA-MB-231 > 100 µM | SNB-19 > 100 µM | CAKI-1 > 100 µM | UO-31 92 µM | HCC 2998 57 µM | UACC-257 > 100 µM | OVCAR-5 > 100 µM | K562 > 100 µM | MDA-N > 100 µM | NCI/ADR-RES > 100 µM | NCI-H226 > 100 µM | OVCAR-4 > 100 µM | LOX IMVI > 100 µM

CC1(C)[C@H]2CC[C@](C)(C2)[C@]1(S)Cc1ccccn1
inactive: SNB-75 23.9 µM | MDA-MB-435 26.3 µM | SR 18.1 µM | SF-268 39.7 µM | NCI-H23 44.6 µM | SF-539 > 100 µM | MDA-MB-231 37 µM | SNB-19 > 100 µM | HL-60 11.2 µM | CAKI-1 57.1 µM | UO-31 > 100 µM | HCC 2998 18.5 µM | UACC-257 25.6 µM | OVCAR-5 88.9 µM | K562 26.3 µM | MDA-N 39.3 µM | NCI/ADR-RES 50.5 µM | LOX IMVI 17.3 µM

O=[N+]([O-])c1cccc2nnccc12
inactive: SNB-75 48.3 µM | MDA-MB-435 15.7 µM | SF-268 25.2 µM | NCI-H23 23.3 µM | SF-539 48 µM | MDA-MB-231 > 10 µM | SNB-19 35.9 µM | HL-60 2.5 µM | CAKI-1 34.9 µM | UO-31 28.6 µM | UACC-257 16.5 µM | OVCAR-5 63.5 µM | K562 23.9 µM | MDA-N 17.6 µM | NCI/ADR-RES 34.1 µM | NCI-H226 16 µM

Cc1cc(C#N)c(Nc2ccccc2[N+](=O)[O-])s1
inactive: SNB-75 15.4 µM | MDA-MB-435 18.8 µM | SR 40.2 µM | SF-268 51.5 µM | NCI-H23 26.1 µM | SF-539 27.7 µM | MDA-MB-231 24.7 µM | SNB-19 41 µM | CAKI-1 77.8 µM | UO-31 39.7 µM | HCC 2998 40.8 µM | UACC-257 68.5 µM | OVCAR-5 14.2 µM | K562 45.2 µM | MDA-N 14.9 µM | NCI/ADR-RES 17.4 µM | NCI-H226 51.1 µM | OVCAR-4 89.3 µM

COc1ccc(C(=O)/C=C/c2ccc(OCC#N)cc2)cc1OC
inactive: SNB-75 3.72 µM | MDA-MB-435 17.5 µM | SR 11.8 µM | SF-268 26.6 µM | NCI-H23 21.9 µM | SF-539 17.9 µM | MDA-MB-231 13.8 µM | SNB-19 15.1 µM | CAKI-1 17.4 µM | UO-31 18 µM | HCC 2998 18.2 µM | UACC-257 > 10 µM | OVCAR-5 > 10 µM | K562 5.52 µM | MDA-N > 10 µM | NCI/ADR-RES 18.5 µM | NCI-H226 19.5 µM | OVCAR-4 40.7 µM

O=C1Nc2ccccc2/C1=N/N=C1NCCCCN1
inactive: SNB-75 > 100 µM | MDA-MB-435 > 100 µM | SR > 100 µM | SF-268 > 100 µM | NCI-H23 > 100 µM | SF-539 > 100 µM | MDA-MB-231 > 100 µM | SNB-19 > 100 µM | CAKI-1 > 100 µM | UO-31 > 100 µM | HCC 2998 > 100 µM | UACC-257 > 100 µM | OVCAR-5 > 100 µM | K562 > 100 µM | MDA-N > 100 µM | NCI/ADR-RES > 100 µM | NCI-H226 > 100 µM | OVCAR-4 > 100 µM | LOX IMVI > 100 µM

O=C1c2cc3c(cc2NC(c2ccccc2F)C1O)OCO3 (stereo not given)
inactive: SNB-75 16.3 µM | MDA-MB-435 3.08 µM | SR 3.74 µM | SF-268 19.4 µM | NCI-H23 22.6 µM | SF-539 12.2 µM | MDA-MB-231 20.2 µM | SNB-19 21.3 µM | CAKI-1 25.6 µM | UO-31 27.7 µM | HCC 2998 15.5 µM | UACC-257 22.9 µM | OVCAR-5 22.1 µM | K562 6.85 µM | MDA-N 2.36 µM | NCI/ADR-RES 10.5 µM | NCI-H226 20.9 µM | OVCAR-4 35.8 µM | LOX IMVI 17.9 µM

CCSC1=N/C(=C\c2ccco2)C(NN)=N1
inactive: SNB-75 > 50 µM | MDA-MB-435 > 50 µM | SF-268 > 50 µM | NCI-H23 > 50 µM | SF-539 > 50 µM | MDA-MB-231 > 50 µM | SNB-19 > 50 µM | HL-60 > 50 µM | CAKI-1 > 50 µM | UO-31 > 50 µM | UACC-257 > 50 µM | OVCAR-5 > 50 µM | K562 > 50 µM | MDA-N > 50 µM | NCI/ADR-RES > 50 µM | NCI-H226 > 50 µM | LOX IMVI > 50 µM

CC1=C(C)C(=O)C(C2=CC(=O)C=CC2=O)=C(C2=CC(=O)C=CC2=O)C1=O
inactive: SNB-75 > 100 µM | MDA-MB-435 27.9 µM | SF-268 > 74.6 µM | NCI-H23 > 100 µM | SF-539 27.3 µM | MDA-MB-231 18.4 µM | SNB-19 > 100 µM | HL-60 14.9 µM | CAKI-1 25.2 µM | UO-31 41.7 µM | HCC 2998 > 100 µM | UACC-257 > 67.1 µM | OVCAR-5 > 58.9 µM | MDA-N 26.9 µM | NCI/ADR-RES > 100 µM | NCI-H226 > 100 µM | OVCAR-4 20.6 µM | LOX IMVI 26.7 µM

NC(Cc1ccc(S(=O)(=O)O)cc1)C(=O)NC(Cc1ccc(S(=O)(=O)O)cc1)C(=O)NC(Cc1ccc(S(=O)(=O)O)cc1)C(=O)O (stereo not given)
inactive: SNB-75 > 100 µM | MDA-MB-435 > 100 µM | SF-268 > 100 µM | NCI-H23 > 100 µM | SF-539 > 100 µM | MDA-MB-231 > 100 µM | HL-60 > 100 µM | CAKI-1 > 100 µM | UO-31 > 100 µM | HCC 2998 > 100 µM | UACC-257 > 100 µM | OVCAR-5 > 100 µM | K562 > 100 µM | MDA-N > 100 µM | NCI/ADR-RES > 100 µM | NCI-H226 > 100 µM | OVCAR-4 > 100 µM | LOX IMVI > 100 µM

C/C=C/C=C\C1OC(O)([C@H](CC)C(=O)NC/C=C/C=C(\C)[C@H](OC)C(C)C2OC(\C=C/C=C/C=C(\C)C(=O)c3c(O)ccn(C)c3=O)[C@H](O)[C@@H]2O)C(O)C(O)C1(C)C (stereo not given in full)
inactive: SNB-75 > 100 µM | MDA-MB-435 > 100 µM | SF-268 > 100 µM | NCI-H23 > 100 µM | SF-539 > 100 µM | MDA-MB-231 > 100 µM | SNB-19 > 100 µM | HL-60 54.3 µM | CAKI-1 > 100 µM | UO-31 > 100 µM | HCC 2998 > 100 µM | UACC-257 > 100 µM | OVCAR-5 > 100 µM | K562 73.5 µM | MDA-N > 100 µM | NCI/ADR-RES > 100 µM | NCI-H226 > 100 µM | OVCAR-4 > 100 µM | LOX IMVI 69.5 µM

CCN(CC)CCNC(=O)c1ccc(I)cc1
inactive: SNB-75 33.8 µM | MDA-MB-435 > 100 µM | SR > 100 µM | SF-268 > 100 µM | NCI-H23 > 100 µM | SF-539 > 100 µM | MDA-MB-231 > 100 µM | SNB-19 > 100 µM | CAKI-1 60.4 µM | UO-31 > 100 µM | HCC 2998 > 100 µM | UACC-257 > 100 µM | OVCAR-5 > 100 µM | K562 > 100 µM | MDA-N > 100 µM | NCI/ADR-RES > 100 µM | NCI-H226 > 100 µM | OVCAR-4 > 100 µM | LOX IMVI > 100 µM

COC1=CC(=O)c2c(CCNC(=O)OCc3ccccc3)n[nH]c2C1=O
inactive: MDA-MB-435 2.16 µM | SR 19.1 µM | NCI-H23 4.01 µM | SF-539 17.9 µM | MDA-MB-231 17.3 µM | SNB-19 14.7 µM | HL-60 16.1 µM | UO-31 14.6 µM | HCC 2998 19 µM | UACC-257 14.9 µM | OVCAR-5 18.1 µM | K562 16 µM | MDA-N 2.24 µM | NCI/ADR-RES 75.9 µM | LOX IMVI 4.54 µM
